“Also recorded” adds a separate entry of the source. Numbered stars: 1 amine (or outer) side, 2 acyl side, 3 side chain; on linkers, the order of the positions; unused ones are H or OH. Bridge positions count the residues as written; N and C are the ends. Square brackets hold non-standard residues; d marks the D form. Peptide text beside a SMILES is read from it. I, II: the chains in the order shown. X1 = O=C(CCc1cn(CCOCCOCCOCCC(=O)[*:2])nn1)[*:1]; isoGln = NC(=O)[C@H](CCC(=O)[*:2])N[*:1]
Columns and labels:
LLC-1 = test: MTT cell viability, LLC-1 cells; assay type: cell-based; details: LLC-1 murine lung cancer, p53 WT
Description: (§1) Cell viability assay in several human cancer cell lines (See Tables 1 to 10). Cell lines were cultured in RPMI 1640 (or recommended medium when indicated) medium supplemented with 10% fetal calf serum, penicillin (50 IU/mL) and streptomycin ([…]) at 37° C. in 5% CO2. Cell viability studies was carried using the MTT (3-(4,5-dimethylthiazol-2-yl)-2,5-diphenyltetrazolium bromide) assay as previously described (31). Briefly, ≈2×10^3 CRC cells were be seeded in 96-well microtiter plates in 100 μL RPMI 1640 in the presence of 10% calf serum. […] After 1 h, 210 μL/well of full complemented media was added, the cells were grown for 48 h and then treated with 20 μL of a solution of MTT (5 mg/mL) for 2 h. The medium was discarded and DMSO ([…]) was added to each well and incubated with gentle shaking for 20 min at room temperature. The absorbance at 595 nm of the solution is analyzed using a Tecan Genios Multifunctional Microplate Reader (Tecan System Inc) and the background at 670 nm subtracted. RNA-Seq analysis was performed using state-of-the-art bioinformatics tools. Briefly, raw RNA-Seq reads were mapped to human genome (hg38) using STAR aligner (v2.7.3a). Gencode Release 36 reference was used for annotation. Transcript and gene expression levels were quantified using the IsoEM (37) with default parameters. […]
(§2) Cell viability was evaluated using the MTT assay as described above.

MV4-11 = test: MTT cell viability, MV4-11 cells; assay type: cell-based, human; details: MV4-11 childhood acute monocytic leukemia, p53 WT
Description: (§3) Cell viability assay in several human cancer cell lines (See Tables 1 to 10). Cell lines were cultured in RPMI 1640 (or recommended medium when indicated) medium supplemented with 10% fetal calf serum, penicillin (50 IU/mL) and streptomycin ([…]) at 37° C. in 5% CO2. Cell viability studies was carried using the MTT (3-(4,5-dimethylthiazol-2-yl)-2,5-diphenyltetrazolium bromide) assay as previously described (31). Briefly, ≈2×10^3 CRC cells were be seeded in 96-well microtiter plates in 100 μL RPMI 1640 in the presence of 10% calf serum. […] After 1 h, 210 μL/well of full complemented media was added, the cells were grown for 48 h and then treated with 20 μL of a solution of MTT (5 mg/mL) for 2 h. The medium was discarded and DMSO ([…]) was added to each well and incubated with gentle shaking for 20 min at room temperature. The absorbance at 595 nm of the solution is analyzed using a Tecan Genios Multifunctional Microplate Reader (Tecan System Inc) and the background at 670 nm subtracted. RNA-Seq analysis was performed using state-of-the-art bioinformatics tools. Briefly, raw RNA-Seq reads were mapped to human genome (hg38) using STAR aligner (v2.7.3a). Gencode Release 36 reference was used for annotation. Transcript and gene expression levels were quantified using the IsoEM (37) with default parameters. Counts per million (CPM) method is used for normalization. Differential expression was done using DESeq2 with default parameters. Genes involved in different biological pathways (human) were searched from Geneontology (http://geneontology.org/). Bioinformatics results can be validated by using Partek Flow (v10.0.21.0912), a bioinformatics pipeline developed by Zymo Research (https://www.zymoresearch.com/).
as §2

NCl-H69 = test: MTT cell viability, NCl-H69 cells; assay type: cell-based, human; details: NCl-H69 lung small cell carcinoma, p53 Mutant
Description: as §3, §2

NCl-H2347 = test: MTT cell viability, NCl-H2347 cells; assay type: cell-based, human; details: NCl-H2347 lung adenocarcinoma, p53 Mutant
Description: as §1, §2

NCl-H1395 = test: MTT cell viability, NCl-H1395 cells; assay type: cell-based, human; details: NCl-H1395 lung adenocarcinoma, p53 WT
Description: as §1, §2

NCl-H526 = test: MTT cell viability, NCl-H526 cells; assay type: cell-based, human; details: NCl-H526 lung small cell carcinoma, p53 Null
Description: as §3, §2

NCl-H292 = test: MTT cell viability, NCl-H292 cells; assay type: cell-based, human; details: NCl-H292 lung mucoepidermoid carcinoma, p53 WT
Description: as §1, §2

MSCLC 494 = test: MTT cell viability, MSCLC 494 cells; assay type: cell-based; details: MSCLC 494 murine small cell lung cancer
Description: as §3, §2

U937 = test: MTT cell viability, U937 cells; assay type: cell-based, human; details: U937 adult acute monocytic leukemia, p53 Mutant
Description: as §3, §2

[1] = Immunogenicity, IgG titer ELISA in Balb/c mice; assay type: in vivo, mouse; details: intraperitoneal 25 mg/kg, 3 times per week for 28 days, listed as MCo-52-2-cTAT
Description: The ELISA assay was performed as follows. Micro microplate wells were coated with pmol of streptavidin and then blocked with a 5 solution of nonfat dry milk in PBS. Around of 150 pmol of the corresponding biotinylated antigen (MCo-52-2 or cTAT) were incubated with the streptavidin-coated wells. Murine IgG (m-IgG, 150 pmol) and PBS (no antigen) were used as positive and negative controls in the assay, respectively. Wells coated with antigens MCo-52-2 and cTAT were incubated with serial dilutions of sera from mice untreated and treated with cyclotide MCo-52-2-cTAT. The amount of murine IgG was detected using a goat HRP-conjugated anti-mouse IgG.

[2] = target: T1, E3 ligase activity of Hdm2 (Homo sapiens, UniProt Q00987); test: E3 ligase activity of Hdm2 on p53, commercial kit; assay type: biochemical; details: in vitro, Hdm2 around 1 μM (FIG. 4B)
T1 construct: purchased
Description: FIGS. 4A-4B: Structure and E3 ligase inhibitory activity of cyclotide MCo-52-2. (FIG. 4A) Structures of the heterodimer formed by the RINGs domain of Hdm2 and HdmX and the complex of cyclotide MCo-52-2 with the RING domain of HdmX, the interacting residues in loops 1 and 5 are shown in light grey (on the left). (FIG. 4B) Inhibitory E3 ligase activity of cyclotide of Hdm2 on p53. The concentration of Hdm2 in the assay was around 1 μM as provided in the commercial kit.
Cyclotide MCo-52-2-cTAT efficiently antagonizes the RING-mediated dimerization of Hdm2/HdmX inhibiting its E3 ligase activity. Applicant developed a cell-based screening of genetically-encoded libraries of cyclotides for Hdm2/HdmX antagonists that has allowed the selection of a bioactive cyclotide, MCo-52-2-cTAT. […] This cyclotide can be efficiently produced by chemical synthesis using solid-phase peptide synthesis (SPPS) or heterologous expression systems (28). Heterologous expression of cyclotides allows introduction of NMR-active isotopes, such as ^13C and ^15N to study the structure of this cyclotide and how interacts with the RING-domains of Hdm2 and HdmX. Using this approach, Applicant solved the structure of cyclotide MCo-52-2 complexed to the RING domain of HdmX in solution (FIG. 4A).

[3] = tested on: p53 pathway in LNCaP cells; test: Activation of the p53 pathway in LNCaP cells; assay type: cell-based, human
Description: Activation of the p53 pathway requires 6 to 8 h after exposing the cells to cyclotide MCo-52-2 for 1 h (FIG. 5B).
(§4) Stabilization of p53 could be observed just 8 h after treating the cells with the bioactive cyclotide (FIG. 5B), likely indicating the cyclotide crosses the cellular membrane into the cytosol through an endocytic mechanism as previously described for this type of microproteins (30, 31). […] These transcription factors (ATF3, FOXO3a and RUNX3) and kinases (DYRK2 and HIPK2) have been described to be regulated by the E3 ligase activity of Hdm2/HdmX (6). […] In both cases the peptide was able to inhibit tumor growth by 60% (HCT116-nude mice) and 80% (CT26-Balb/c mice) (FIG. 7).

[4] = tested on: p53, FOXO3a, RUNX3, ATF3, DYRK2 and HIPK2 in HCT116 cell lines; test: Stabilization of Hdm2/HdmX E3 ligase substrates in HCT116 cell lines; assay type: cell-based, human; details: HCT116 cell lines with p53-wt and -null phenotype; listed as MCo-52-2-cTAT
Description: as §4

T1 sequence (Q00987 whole entry): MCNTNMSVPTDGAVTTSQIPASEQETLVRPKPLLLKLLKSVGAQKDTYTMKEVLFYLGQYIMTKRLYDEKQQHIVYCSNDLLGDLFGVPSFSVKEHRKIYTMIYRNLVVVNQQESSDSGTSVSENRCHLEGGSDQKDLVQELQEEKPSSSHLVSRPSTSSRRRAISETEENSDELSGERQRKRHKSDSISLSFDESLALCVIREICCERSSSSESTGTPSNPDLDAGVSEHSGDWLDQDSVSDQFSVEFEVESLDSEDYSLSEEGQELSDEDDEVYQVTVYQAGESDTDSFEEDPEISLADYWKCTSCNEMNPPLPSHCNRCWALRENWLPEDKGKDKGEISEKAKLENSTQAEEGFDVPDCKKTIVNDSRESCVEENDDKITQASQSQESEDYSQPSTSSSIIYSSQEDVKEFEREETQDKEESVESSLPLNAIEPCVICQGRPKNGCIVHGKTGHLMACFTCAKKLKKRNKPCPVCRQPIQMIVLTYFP

Compound	EC50 (LLC-1)	EC50 (MV4-11)	EC50 (NCl-H69)	EC50 (NCl-H2347)	EC50 (NCl-H1395)	EC50 (NCl-H526)	EC50 (NCl-H292)	EC50 (MSCLC 494)	EC50 (U937)	Immunogenicity, IgG titer against the cyclotide [1]	Inhibition of the E3 ligase activity of Hdm2 [2]	Time until activation of the p53 pathway / stabilization of p53 ([3]; after exposing the cells to cyclotide for 1 h, listed as MCo-52-2-cTAT)	Activation of the p53 pathway ([3]; wild type-p53, listed as MCo-52-2-cTAT)	Stabilization of transcription factors and kinases [4]
COc1ccc(C2=N[C@@H](c3ccc(Cl)cc3)[C@@H](c3ccc(Cl)cc3)N2C(=O)N2CCNC(=O)C2)c(OC(C)C)c1 [Nutlin 3A]	9.4 ± 1.2 µM	700 ± 100 nM	> 50 µM	25.3 ± 5.5 µM	23.1 ± 5.6 µM	> 100 µM	19.2 ± 2.9 µM	> 100 µM	> 50 µM					
N=C(N)NCCC[C@@H]1NC(=O)[C@@H](CCCNC(=N)N)NC(=O)[C@H](CCCCN)NC(=O)[C@@H](N)CCCCNC(=O)CC[C@@H](C(=O)O)NC(=O)[C@@H](CCCNC(=N)N)NC(=O)[C@H](CCCNC(=N)N)NC(=O)[C@@H](CCCCN)NC(=O)[C@H](CCCCN)NC(=O)[C@@H](CCCNC(=N)N)NC(=O)CNC(=O)[C@@H](CCCNC(=N)N)NC1=O [cTAT] (H-KK[dR]R[dR]G[dR]K[dK]R[dR]E-OH; lactam 1-12; N-terminus and C-terminus assumed)	> 100 µM	> 100000 nM	> 100 µM	> 100 µM	> 100 µM	> 100 µM	> 100 µM	> 100 µM	> 100 µM					
I: cyclo(ACICRHDSYCGSGSDGGVCPNLYLLCRRDKDCPG) / II: KK[dR]R[dR]G[dR]K[dK]R[dR][isoGln] (disulfide I:2-I:19, I:4-I:26, I:10-I:32; linker I:30-II:N via X1; lactam II:1-II:C) [Cyclotide 52-2-cTAT]										did not show any significant IgG titer; also recorded: little immunogenicity	specifically inhibit the E3 ligase activity of Hdm2 in vitro in a dose-dependent fashion	8 h	activate the p53 pathway in wild type-p53 cancer cells (LNCaP) in a dose-dependent fashion; also recorded: activates the p53 pathway in LNCaP cells in a dose-dependent fashion	stabilize ATF3, FOXO3a, RUNX3, DYRK2 and HIPK2; also recorded: stabilizes transcription factors p53, FOXO3a, RUNX3, ATF3, and kinases DYRK2 and HIPK2

— patent US20250325684A1, “POTENT ANTI-CANCER CYCLOTIDES” (University of Southern California, priority 2022, published 2025)
